Results published in PubChem BioAssay AID2060885 (Molecular Pharmacology Branch, DTP, NCI, 2025).

Tested on: NCI-H23 complex spheroids with HUVEC/MSC, viability
Test: Anticancer human tumor NCI-H23 cell line growth inhibition [RAS];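 note: spheroids exposed to compound for 7 days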;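 for viability, T/C: 100% = DMSO vehicle control viability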
Settings: for IC50: curve of first compound; for viability, T/C: stronger effect = lower value; active = viability on the fitted dose curve at most 10% of control; inactive = the rest
Outline: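 Agents were tested in combination matrices in half-log decrements from a top concentration at or near clinical Cmax (10 microM if undetermined). Targets were multi-cell spheroids of tumour lines plus HUVEC and MSC stromal cells.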

[1] = second compound 0.000949 µM, first compound 0.0316 µM
[2] = second compound 0.000949 µM, first compound 0.1 µM
[3] = second compound 0.000949 µM, first compound 0.316 µM
[4] = second compound 0.000949 µM, first compound 1 µM
[5] = second compound 0.000949 µM, first compound 3.16 µM
[6] = second compound 0.000949 µM, first compound 10 µM
[7] = second compound 0.003 µM, first compound 0.0316 µM
[8] = second compound 0.003 µM, first compound 0.1 µM
[9] = second compound 0.003 µM, first compound 0.316 µM
[10] = second compound 0.003 µM, first compound 1 µM
[11] = second compound 0.003 µM, first compound 3.16 µM
[12] = second compound 0.003 µM, first compound 10 µM
[13] = second compound 0.00949 µM, first compound 0.0316 µM
[14] = second compound 0.00949 µM, first compound 0.1 µM
[15] = second compound 0.00949 µM, first compound 0.316 µM
[16] = second compound 0.00949 µM, first compound 1 µM
[17] = second compound 0.00949 µM, first compound 3.16 µM
[18] = second compound 0.00949 µM, first compound 10 µM
[19] = second compound 0.03 µM, first compound 0.0316 µM
[20] = second compound 0.03 µM, first compound 0.1 µM
[21] = second compound 0.03 µM, first compound 0.316 µM
[22] = second compound 0.03 µM, first compound 1 µM
[23] = second compound 0.03 µM, first compound 3.16 µM
[24] = second compound 0.03 µM, first compound 10 µM
[25] = second compound 0.0949 µM, first compound 0.0316 µM
[26] = second compound 0.0949 µM, first compound 0.1 µM
[27] = second compound 0.0949 µM, first compound 0.316 µM
[28] = second compound 0.0949 µM, first compound 1 µM
[29] = second compound 0.0949 µM, first compound 3.16 µM
[30] = second compound 0.0949 µM, first compound 10 µM
[31] = second compound 0.3 µM, first compound 0.0316 µM
[32] = second compound 0.3 µM, first compound 0.1 µM
[33] = second compound 0.3 µM, first compound 0.316 µM
[34] = second compound 0.3 µM, first compound 1 µM
[35] = second compound 0.3 µM, first compound 3.16 µM
[36] = second compound 0.3 µM, first compound 10 µM

CC1(O)CCCC1n1c(=O)c(C(F)F)cc2cnc(NC3CCN(S(C)(=O)=O)CC3)nc21 (centres undefined) + CCn1c(-c2cccnc2C(C)OC)c2c3cc(ccc31)N1CCOC(CC(NC(=O)C(C(C)C)N(C)C(=O)C3(F)CCN(C(=O)C#CC(C)(C)N(C)C)CC3)C(=O)N3CCCC(N3)C(=O)OCC(C)(C)C2)C1
inactive: viability, T/C [1] 27.5% | viability, T/C [2] 18.5% | viability, T/C [3] 15% | viability, T/C [4] 21.3% | viability, T/C [5] 18.9% | viability, T/C [7] 24.7% | viability, T/C [8] 16.5% | viability, T/C [9] 17.4% | viability, T/C [10] 17.5% | viability, T/C [11] 20.4% | viability, T/C [13] 25.2% | viability, T/C [14] 14.7% | viability, T/C [15] 15.8% | viability, T/C [16] 17.1% | viability, T/C [17] 17.4% | viability, T/C [19] 23% | viability, T/C [20] 16.8% | viability, T/C [21] 15.1% | viability, T/C [22] 18.7% | viability, T/C [23] 14.6% | viability, T/C [25] 19.2% | viability, T/C [26] 17.1% | viability, T/C [27] 17.8% | viability, T/C [28] 15.5% | viability, T/C [29] 14.9% | viability, T/C [31] 19.5% | viability, T/C [32] 16.9% | viability, T/C [33] 15.1% | viability, T/C [34] 16.7% | viability, T/C [35] 15.6%
active: viability, T/C [6] 1.72% | viability, T/C [12] 1.47% | viability, T/C [18] 2.12% | viability, T/C [24] 2.81% | viability, T/C [30] 2.88% | viability, T/C [36] 2.05%
< 0.0316 µM: IC50 (second compound 0.000949 µM) | IC50 (second compound 0.003 µM) | IC50 (second compound 0.00949 µM) | IC50 (second compound 0.03 µM) | IC50 (second compound 0.0949 µM) | IC50 (second compound 0.3 µM)

CCC(CC)c1cc(NC2CCC(N)C2)n2nccc2n1 (centres undefined) + CCn1c(-c2cccnc2C(C)OC)c2c3cc(ccc31)N1CCOC(CC(NC(=O)C(C(C)C)N(C)C(=O)C3(F)CCN(C(=O)C#CC(C)(C)N(C)C)CC3)C(=O)N3CCCC(N3)C(=O)OCC(C)(C)C2)C1
inactive: viability, T/C [1] 32.7% | viability, T/C [2] 33.7% | viability, T/C [3] 24.4% | viability, T/C [4] 28% | viability, T/C [5] 3.12% | viability, T/C [7] 27.1% | viability, T/C [8] 25.2% | viability, T/C [9] 28.3% | viability, T/C [10] 25.9% | viability, T/C [13] 27.7% | viability, T/C [14] 25.1% | viability, T/C [15] 31.2% | viability, T/C [16] 25.8% | viability, T/C [19] 25.3% | viability, T/C [20] 28.2% | viability, T/C [21] 28% | viability, T/C [22] 25.3% | viability, T/C [25] 25.7% | viability, T/C [26] 25.3% | viability, T/C [27] 28.1% | viability, T/C [28] 24.1% | viability, T/C [31] 22.5% | viability, T/C [32] 24.1% | viability, T/C [33] 27.1% | viability, T/C [34] 20.8%
< 0.0316 µM: IC50 (second compound 0.000949 µM) | IC50 (second compound 0.003 µM) | IC50 (second compound 0.00949 µM) | IC50 (second compound 0.03 µM) | IC50 (second compound 0.0949 µM) | IC50 (second compound 0.3 µM)
active: viability, T/C [6] 0.38% | viability, T/C [11] 1.84% | viability, T/C [12] 0.31% | viability, T/C [17] 1.37% | viability, T/C [18] 0.37% | viability, T/C [23] 0.57% | viability, T/C [24] 0.34% | viability, T/C [29] 0.71% | viability, T/C [30] 0.48% | viability, T/C [35] 0.58% | viability, T/C [36] 0.67%
